Read-outs that look alike come from different tables or passages of the source.
What was measured:
B16 mouse melanoma cells = assay: Anti-tumor activity against B16 mouse melanoma inoculated subcutaneously; type: in vivo; conditions: maximum tumor growth inhibition rate during the test period of 20 days, female BDF1 mice, 0.1 mg/kg intravenously on days 1, 5 and 9 after s.c. inoculation; for inhibition in vivo at 0.1 mg/kg: Mus musculus, iv, 480 h, read-out: TGIR (%)
Experimental: Anti-tumor activity against B16 mouse melanoma inoculated subcutaneously.
Experiment was carried out with the groups of 6 female BDF1 mice (6 weeks old) purchased from Japan SLC Inc., B16 mouse melanoma cells (1 × 10^6 cells/mouse) were inoculated subcutaneously in the rear region of mice, and the sample prepared in a concentration of 0.1 mg/kg was administered intravenously at a dose of 0.2 ml/20g/mouse after 1, 5 and 9 days from inoculation (the day of inoculation being set as 0 day). The volume of the tumor at the hypodermis of the rear region [(longer diameter × shorter diameter × height)/2] was measured on 8, 12, 16 and 20 days after inoculation, and the tumor growth inhibition rate (TGIR) of each sample was determined. TGIR was calculated from the following equation: TGIR (%) = (1 - T/C) × 100 [formula] wherein C represents a tumor volume of the control group and T represents a tumor volume of the group to which the sample was administered.
In this connection, respective test runs were divided by broken lines.

male Crj:CD rats = assay: Acute toxicity, single intravenous administration; type: in vivo; conditions: 7 days
Experimental: (§1) The compound 5 was once administered intravenously in doses of 0.1, 1.0 and 10 mg/kg to the groups of 6 male Crj:CD rats (5 weeks old), and the toxicity tests were conducted for 7 days after the administration of the compound 5.

[1] = Acute toxicity, single intravenous administration; type: in vivo; conditions: rat, in vivo; single intravenous dose, male Crj:CD rats, observed for 7 days
Experimental: as §1

[2] = system: spleen cells of C57BL/6 mouse and pancreatic cells of BALB/c mouse; assay: Lymphocyte mixed culture reaction (mouse MLR), uptake of 3H-TdR; type: cell-based; conditions: for activity at 1 µg/mL / activity at 0.1 µg/mL / activity at 0.01 µg/mL: Mus musculus, Lymphocyte, read-out: Uptake of ^3H-TdR (% of control)
Experimental: Experiment was carried out with the spleen cells of C57BL/6 mouse which had been treated with mitomycin C (50 µg/ml, 30 min) as the stimulator and with the […] cells of BALB/c mouse as the responder. These […] cells were suspended to a concentration of 2 × 10^6 cells/ml with a culture medium of 10% FCS RPMI 1640, respectively. These cells (50 µl/well) and a sample (10 µl/well) were plated in a 96 well round-bottomed plate and cultured for 42 hours* under the condition of 37°C and 5% CO2. ^3H-thymidine (^3H-TdR) was added in a dose of 0.5 µCi/well. After 8 hours, the cells were harvested and subjected to the measurement of the uptake of ^3H-TdR by a liquid scintillation counter.
*The samples of the compounds 32, 33 and 34 were cultured for 4 days.

[3] = 50 h, sample concentration 10^0 µg/ml, cultured for 42 hours, then 8 hours with 3H-TdR
[4] = 50 h, sample concentration 10^-1 µg/ml, cultured for 42 hours, then 8 hours with 3H-TdR
[5] = 50 h, sample concentration 10^-2 µg/ml, cultured for 42 hours, then 8 hours with 3H-TdR
[6] = sample concentration 10^-1 µg/ml, cultured for 4 days
[7] = sample concentration 10^-2 µg/ml, cultured for 4 days

Row | Compound | inhibition in vivo at 0.1 mg/kg (B16 mouse melanoma cells) [%] | activity at 1 µg/mL [2, 3] [%] | activity at 0.1 µg/mL [2, 4] [%] | activity at 0.01 µg/mL [2, 5] [%] | further results
1 | CCCCCCCCCCCCCCC[C@@H](O)[C@H](CO[C@H]1O[C@H](CO)[C@H](O)[C@H](O)[C@H]1O)NC(=O)CCCCCCCCCCCCC [Compound 5, (2S,3R)-1-(α-D-galactopyranosyloxy)-2-tetradecanoylamino-3-octadecanol] | 92.1 | 473 | 170 | 153 | lethality (male Crj:CD rats; single intravenous dose of 10 mg/kg): not lethal; autopsy findings (male Crj:CD rats; single intravenous doses of 0.1, 1.0 and 10 mg/kg): no abnormality was observed; LD50 at 168 h [1]: ≥ 10 mg/kg
2 | CCCCCCCCCCCCCCCCCCCCCC[C@@H](O)C(=O)N[C@@H](CO[C@H]1O[C@H](CO)[C@H](O)[C@H](O)[C@H]1O)[C@H](O)[C@H](O)CCCCCCCCCCC [Compound 23, (2S,3S,4R)-1-(α-D-galactopyranosyloxy)-2-[(R)-2-hydroxytetracosanoylamino]-3,4-pentadecanediol] | 94.1 | 423 | 167 | 143 | –
3 | CCCCCCCCCCCCCCCCCCCCCC[C@@H](O)C(=O)N[C@@H](CO[C@H]1O[C@H](CO)[C@H](O)[C@H](O)[C@H]1O)[C@H](O)[C@H](O)CCCCCCC [Compound 24, (2S,3S,4R)-1-(α-D-galactopyranosyloxy)-2-[(R)-2-hydroxytetracosanoylamino]-3,4-undecanediol] | 52.5 | 416 | 167 | 144 | –
4 | CCCCCCCCCCCCCCCCCCCCCCCC[C@@H](O)C(=O)N[C@@H](CO[C@H]1O[C@H](CO)[C@H](O)[C@H](O)[C@H]1O)[C@H](O)[C@H](O)CCCCCCCCCCCCCC [Compound 25, (2S,3S,4R)-1-(α-D-galactopyranosyloxy)-2-[(R)-2-hydroxyhexacosanoylamino]-3,4-octadecanediol] | 92.8 | 230 | 179 | 161 | –
5 | CCCCCCCCCCCCCCCCCCCCCCCC[C@@H](O)C(=O)N[C@@H](CO[C@H]1O[C@H](CO)[C@H](O)[C@H](O)[C@H]1O)[C@H](O)[C@H](O)CCCCCCCCCCCCCCC [Compound 26, (2S,3S,4R)-1-(α-D-galactopyranosyloxy)-2-[(R)-2-hydroxyhexacosanoylamino]-3,4-nonadecanediol] | 72.3 | 253 | 199 | 193 | –
6 | CCCCCCCCCCCCCCCCCCCCCCCC[C@@H](O)C(=O)N[C@@H](CO[C@H]1O[C@H](CO)[C@H](O)[C@H](O)[C@H]1O)[C@H](O)[C@H](O)CCCCCCCCCCCCCCCC [Compound 27, (2S,3S,4R)-1-(α-D-galactopyranosyloxy)-2-[(R)-2-hydroxyhexacosanoylamino]-3,4-icosanediol] | 92.8 | 257 | 181 | 162 | –
7 | CCCCCCCCCCCCCCCCCCCCCC[C@H](O)C(=O)N[C@@H](CO[C@H]1O[C@H](CO)[C@H](O)[C@H](O)[C@H]1O)[C@H](O)[C@H](O)CCCCCCCCCCCCC [Compound 28, (2S,3S,4R)-1-(α-D-galactopyranosyloxy)-2-[(S)-2-hydroxytetracosanoylamino]-3,4-heptadecanediol] | 76.2 | 357 | 172 | 141 | –
8 | CCCCCCCC/C=C\CCCCCCCC(=O)N[C@@H](CO[C@H]1O[C@H](CO)[C@H](O)[C@H](O)[C@H]1O)[C@H](O)CCCCCCCCCCCCCCC [Compound 29, (2S,3R)-1-(α-D-galactopyranosyloxy)-2-oleoylamino-3-octadecanol] | 79.7 | 319 | 382 | 215 | –
9 | CCCCCCCCCCCCCCCCCCCCCC[C@H](O)C(=O)N[C@@H](CO[C@H]1O[C@H](CO)[C@H](O)[C@H](O)[C@H]1O)[C@H](O)[C@H](O)CCCCCCCCCCCC(C)C [Compound 30, (2S,3S,4R)-1-(α-D-galactopyranosyloxy)-2-[(S)-2-hydroxytetracosanoylamino]-16-methyl-3,4-heptadecanediol] | 57.7 | 385 | 156 | 134 | –
10 | CCCCCCCCCCCCCCCCCCCCCCCC(=O)N[C@@H](CO[C@H]1O[C@H](CO)[C@H](O)[C@H](O)[C@H]1O)[C@H](O)[C@H](O)CCCCCCCCCCCC(C)C [Compound 31, (2S,3S,4R)-1-(α-D-galactopyranosyloxy)-16-methyl-2-tetracosanoylamino-3,4-heptadecanediol] | 83.4 | 398 | 235 | 163 | –
11 | CCCCCCCCCCCCCCCCCCCCCCC[C@@H](O)C(=O)N[C@@H](CO[C@H]1O[C@H](CO)[C@H](O)[C@H](O)[C@H]1O)[C@H](O)[C@H](O)CCCCCCCCCCCC(C)CC (stereo partly drawn) [Compound 34, (2S,3S,4R)-1-(α-D-galactopyranosyloxy)-2-[(R)-2-hydroxypentacosanoylamino]-16-methyl-3,4-octadecanediol] | 88.9 | – | – | – | activity at 0.1 µg/mL ([2]; 96 h, sample concentration 10^-1 µg/ml, cultured for 4 days): 360%; activity at 0.01 µg/mL ([2]; 96 h, sample concentration 10^-2 µg/ml, cultured for 4 days): 406%
12 | CCCCCCCCCCCCC/C=C/[C@@H](O)[C@H](CO[C@H]1O[C@H](CO)[C@H](O)[C@H](O)[C@H]1O)NC(=O)CCCCCCCCCCCCC [Compound 35, (2S,3R,4E)-1-(α-D-galactopyranosyloxy)-2-tetradecanoylamino-4-octadecen-3-ol] | 63 | 562 | 261 | 247 | –
13 | (2S,3S,4R)-1-(α-D-galactopyranosyloxy)-2-[(R)-2-hydroxytetracosanoylamino]-3,4-heptadecanediol [Compound 22] | – | – | – | – | TGIR (%) (B16 mouse melanoma cells): 82.4%; Uptake of ^3H-TdR (% of control) ([2]; sample concentration 10^0 µg/ml, cultured for 42 hours, then 8 hours with 3H-TdR): 414 % of control; Uptake of ^3H-TdR (% of control) ([2]; sample concentration 10^-1 µg/ml, cultured for 42 hours, then 8 hours with 3H-TdR): 166 % of control; Uptake of ^3H-TdR (% of control) ([2]; sample concentration 10^-2 µg/ml, cultured for 42 hours, then 8 hours with 3H-TdR): 149 % of control
14 | (2S,3S,4R)-1-(α-D-galactopyranosyloxy)-2-[(R)-2-hydroxytetracosanoylamino]-3,4-hexadecanediol [Compound 32] | – | – | – | – | TGIR (%) (B16 mouse melanoma cells): 73.2%; Uptake of ^3H-TdR (% of control) [2, 6]: 406 % of control; Uptake of ^3H-TdR (% of control) [2, 7]: 426 % of control
15 | (2S,3S,4R)-1-(α-D-galactopyranosyloxy)-2-[(R)-2-hydroxytricosanoylamino]-16-methyl-3,4-heptadecanediol [Compound 33] | – | – | – | – | TGIR (%) (B16 mouse melanoma cells): 76.5%; Uptake of ^3H-TdR (% of control) [2, 6]: 365 % of control; Uptake of ^3H-TdR (% of control) [2, 7]: 422 % of control

From EP0609437B1, “NOVEL SPHINGOGLYCOLIPID AND USE THEREOF” (KIRIN BEER KABUSHIKI KAISHA, priority 1991, dated 1993)
